The test system of data set [1] is S. aureus MW2. The class given is cell-based, Staphylococcus aureus. Particulars: for retinoid-resistant mutants by plating: 10^10 CFU MW2 plated on agar with 2.5×, 5× or 10× MIC.
A further data set relates to MRSA strain MW2. As to the kind of experiment: MIC / growth inhibition of MRSA strain MW2. Particulars: for minimum inhibitory concentration (MIC): MRSA strain MW2. The class given is cell-based, Staphylococcus aureus.
Data set [2] has as its system S. aureus MW2 persisters. Put plainly: Viability of MRSA MW2 persisters. In kind it is cell-based, Staphylococcus aureus. Particulars: for killing of MRSA persister cells: stationary-phase MW2, 4 h; for eradication of MRSA persisters: at 8 μg ml^−1.
For data set [3] the following is noted: cited from earlier work.
Data set [4] is described as follows: Giant unilamellar vesicle integrity. Particulars: DOPC:DOPG 7:3.
The subject of the next data set is human erythrocytes. Put plainly: Haemolytic activity. The class given is cell-based. Particulars: 2% human erythrocytes, 1 h.
For data set [5], the system named is exponential-phase S. aureus MW2 cells. As to the kind of experiment: SYTOX Green membrane permeabilization, exponential-phase MW2. The class given is cell-based, Staphylococcus aureus.
Data set [6] relates to MRSA-MW2-infected C. elegans. As to the kind of experiment: C. elegans-MRSA killing assay. In kind it is in vivo, Caenorhabditis elegans. Particulars: for C. elegans protected against MW2-induced death: at concentrations above in vitro MICs.
Data set [7] has as its system Exponential-phase S. aureus MW2. As to the kind of experiment: Cell lysis. In kind it is cell-based, Staphylococcus aureus. Particulars: 10× MIC, 4 h, OD600.
Data set [8] deals with Enterococcus faecium strains. As to the kind of experiment: Activity against Enterococcus faecium strains. In kind it is cell-based.
The subject of a further data set is Gram-negative species. Put plainly: Activity against Gram-negative species. In kind it is cell-based.
The next data set concerns MRSA MW2 biofilms. Put plainly: Persisters in MRSA biofilms. In kind it is cell-based, Staphylococcus aureus.
Data set [9] concerns MRSA growing and persister cells. Put plainly: Synergism with gentamicin. In kind it is cell-based, Staphylococcus aureus.
Data set [10] concerns clinical S. aureus strains. As to the kind of experiment: Activity against panel of clinical S. aureus strains. In kind it is cell-based, Staphylococcus aureus.
Data set [11] relates to S. aureus MW2. As to the kind of experiment: Transmission electron microscopy of retinoid-treated cells. Particulars: 10× MIC. In kind it is cell-based, Staphylococcus aureus.
The test system of data set [12] is normal human primary hepatocytes. Put plainly: Cytotoxicity, human primary hepatocytes. The class given is cell-based. Particulars: 24 h.
Data set [13] concerns S. aureus MW2 persisters. Particulars: not told.
Data set [14] has as its system persisters formed by clinical isolates including VRS1. As to the kind of experiment: Viability of persisters of clinical S. aureus isolates. In kind it is cell-based, Staphylococcus aureus. Particulars: 8–10× MIC; including multi-drug resistant VRS1.
Data set [15] has as its system Exponential-phase MRSA cells (strain MW2). As to the kind of experiment: Killing kinetics, exponential-phase MRSA MW2. In kind it is cell-based, Staphylococcus aureus. Particulars: 10× MIC, level of detection 2 × 10^2 CFU ml^−1.
Data set [16] deals with S. aureus MW2 persisters. Put plainly: SYTOX Green membrane permeabilization, MW2 persisters. Particulars: SYTOX Green uptake.
The subject of data set [17] is MW2-infected neutropenic mice. Put plainly: Deep-seated mouse thigh MRSA infection model. In kind it is in vivo. Particulars: 20 mg kg^−1 i.p. alone or in combination with gentamicin 30 mg kg^−1 s.c.
The nature of data set [18]: Hepatic and renal toxicity in mice. The class given is in vivo, mouse. Particulars: every 12 h for 3 days, i.p.; analogue 2 10–80 mg kg^−1, vancomycin 25 mg kg^−1; P > 0.7.
[19] abbreviates: 100 days serial passage in sub-MIC CD437.

Converted amounts (≈) assume the structure as drawn. Where two headings read alike, the source gives them in different places.

Here are results for seven molecules from article PMC6462414 (Nature, 2018).

Consider daptomycin, for which, in the data set on S. aureus MW2 [1] (serial passage in daptomycin for 15 days), the “increase in resistance after serial passage” value (from here on “increase in resistance”) is on record as “tenfold”.
Take `COc1ccc(-c2ccc3cc(C(=O)O)ccc3c2)cc1C12CC3CC(CC(C3)C1)C2` [adapalene]: the “activity against MRSA” value in the data set on MRSA strain MW2 (MRSA MW2) is “ineffective against MRSA”.
For `O=C(O)/C=C/c1ccc(-c2ccc(O)c(C34CC5CC(CC(C5)C3)C4)c2)cc1` [adarotene], in the data set on S. aureus MW2 persisters [2], the “killing of MRSA persister cells” value is “inactive against persister cells”. Further, in [3], the excretion entry is given as “excreted rapidly”. Further, in [4], the “integrity of giant unilamellar vesicles” value is on record as “disrupted the integrity”. Further, in the data set on S. aureus MW2 [1], the “retinoid-resistant mutants by plating” value is “unable to obtain retinoid-resistant mutants”. In the data set on S. aureus MW2 [1] (setting [19]), the “increase in resistance” value is “twofold”. Also, the MIC in the data set on MRSA strain MW2 (Staphylococcus aureus, MRSA, read-out: minimum inhibitory concentration (MIC)) is 2 µg/mL (≈ 5.34 µM). Further, the “median haemolytic concentration (HC50)” value in the data set on human erythrocytes is recorded as “greater than 32 μg ml^−1”. Besides, the “membrane permeabilization (SYTOX Green uptake)” value (“membrane permeabilization” for short) in data set [5] (exponential-phase MW2) is recorded as “induced membrane permeabilization”. Moreover, the “MRSA-induced death of C. elegans” value in [6] (in vivo) is reported as “prevented the MRSA-induced death of C. elegans”.
On to `O=C(O)c1ccc(-c2ccc3cc(O)c(C45CC6CC(CC(C6)C4)C5)cc3c2)cc1` [CD1530], for which the “eradication of MRSA persisters” value in the data set with S. aureus MW2 persisters [2] is reported as “completely eradicated MRSA persisters”. Also, the “killing of MRSA persister cells” value with S. aureus MW2 persisters [2] was “killed MRSA-persister cells”. Moreover, in data set [7], the “direct lysis of bacterial cells” value is “did not lyse bacterial cells directly”. Moreover, the “activity against Enterococcus faecium strains” value in [8] is “potent activity”. In addition, in the data set on Gram-negative species, the “activity against Gram-negative species” value was “not against Gram-negative species”. For the same molecule, the “persisters in MRSA biofilms killed” value with MRSA MW2 biofilms (16× MIC) is on record as “around 90%”; in the data set with MRSA MW2 biofilms (32× MIC) it was approximately 100%. In addition, in data set [4], the “integrity of giant unilamellar vesicles” value is “disrupted the integrity”. Moreover, in the data set on S. aureus MW2 [1], the “retinoid-resistant mutants by plating” value was “unable to obtain retinoid-resistant mutants”. Also, in the data set with S. aureus MW2 [1] (setting [19]), the “increase in resistance” value is listed as “twofold”. Further, the “minimum inhibitory concentration (MIC)” value in the data set with MRSA strain MW2 is 1 µg/mL (≈ 2.51 µM). Besides, the synergism with gentamicin entry in [9] is recorded as “significant synergism”. Besides, in the data set on human erythrocytes, the “median haemolytic concentration (HC50)” value is reported as “greater than 32 μg ml^−1”. Further, in [10], the “activity against panel of clinical S. aureus strains” value is given as “potent activity”. Besides, the “formation of mesosome-like structures” value with S. aureus MW2 [11] is reported as “caused the formation of mesosome-like structures”. For the same molecule, the “median lethal concentration (LC50)” value in data set [12] was not below 20 µg/mL. Besides, in the data set with S. aureus MW2 persisters [13], the “permeabilization of MRSA-persister membranes” value was “induced rapid permeabilization”. Moreover, in data set [14], the “time to complete eradication of persisters of 13 clinical isolates” value fell in the range of 1 to 4 h. In data set [5], the “membrane permeabilization” value is listed as “induced membrane permeabilization”. For the same molecule, the “levels of MW2 after two hours” value in [15] is listed as “below the limit of detection”. In addition, the “C. elegans protected against MW2-induced death” value in data set [6] is reported as 100%.
In the case of `O=C(O)c1ccc2cc(-c3ccc(O)c(C45CC6CC(CC(C6)C4)C5)c3)ccc2c1` [CD437], in the data set on S. aureus MW2 persisters [2], the “eradication of MRSA persisters” value is “completely eradicated MRSA persisters” and the “killing of MRSA persister cells” value was “killed MRSA-persister cells”. In addition, in data set [7], the “direct lysis of bacterial cells” value is on record as “did not lyse bacterial cells directly”. The “activity against Enterococcus faecium strains” value in [8] is “potent activity”. In addition, in the data set on Gram-negative species, the “activity against Gram-negative species” value was “not against Gram-negative species”. Moreover, the “permeabilization of MRSA-persister membranes” value in the data set on S. aureus MW2 persisters [16] is reported as “induced rapid permeabilization”. Moreover, the “persisters in MRSA biofilms killed” value in the data set with MRSA MW2 biofilms (16× MIC) is “around 90%”. Also, the “persisters in MRSA biofilms killed” value in the data set with MRSA MW2 biofilms (32× MIC) was approximately 100%. In addition, the “integrity of giant unilamellar vesicles” value in data set [4] is recorded as “disrupted the integrity”. The “retinoid-resistant mutants by plating” value in the data set on S. aureus MW2 [1] is “unable to obtain retinoid-resistant mutants”. Besides, the “increase in resistance” value in the data set with S. aureus MW2 [1] (setting [19]) was “twofold”. Further, the “minimum inhibitory concentration (MIC)” value in the data set on MRSA strain MW2 was 1 µg/mL (≈ 2.51 µM). In addition, in [9], the synergism with gentamicin entry is recorded as “significant synergism”. The “median haemolytic concentration (HC50)” value in the data set on human erythrocytes is reported as “greater than 32 μg ml^−1”. In addition, in data set [10], the “activity against panel of clinical S. aureus strains” value is “potent activity”. Moreover, in the data set with S. aureus MW2 [11], the “formation of mesosome-like structures” value is “caused the formation of mesosome-like structures”. Further, the “median lethal concentration (LC50)” value in data set [12] is not below 20 µg/mL. Also, the “time to complete eradication of persisters of 13 clinical isolates” value in data set [14] is 1 to 4 h. Moreover, the “membrane permeabilization” value in data set [5] (exponential-phase MW2) is listed as “induced membrane permeabilization”. Besides, the “levels of MW2 after two hours” value in [15] is reported as “below the limit of detection”. The “C. elegans protected against MW2-induced death” value in data set [6] came to 100%. In data set [17], the “efficacy in thigh infection model” value is listed as “exhibited efficacy”.
With `CN[C@H](CC(C)C)C(=O)N[C@H]1C(=O)N[C@@H](CC(N)=O)C(=O)N[C@H]2C(=O)N[C@H]3C(=O)N[C@H](C(=O)N[C@H](C(=O)O)c4cc(O)cc(O)c4-c4cc3ccc4O)[C@H](O)c3ccc(c(Cl)c3)Oc3cc2cc(c3O[C@@H]2O[C@H](CO)[C@@H](O)[C@H](O)[C@H]2O[C@H]2C[C@](C)(N)[C@H](O)[C@H](C)O2)Oc2ccc(cc2Cl)[C@H]1O` [vancomycin], the “ALT and BUN versus control” value in [18] is “lack of significant differences”.
In the case of `O=C(O)c1cn(C2CC2)c2cc(N3CCNCC3)c(F)cc2c1=O` [ciprofloxacin], the “increase in resistance” value in the data set on S. aureus MW2 [1] (serial passage in ciprofloxacin for 100 days) turned out to be 256 fold.
